In PubChem BioAssay AID248 (DTP/NCI, 2004):
Values joined by “and” are separate entries in the source; they are usually repeats but may differ in a detail not shown here. Identical values can stand only once. Toxic doses and inconclusive results are not listed. Rule as the data show it: active = T/C of 150% or more; inactive = T/C below 125%.

System: L1210 leukemia ip in BDF1 mice, survival T/C
Assay: NCI In Vivo Anticancer Drug Screen. Data for tumor model L1210 Leukemia (intraperitoneal) in B6D2F1 (BDF1) mice
Conditions: endpoint: mean survival time, higher = longer survival
How it was run: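 Antitumor effect is assessed in tumor-bearing animals. Survival in the compound arm is compared with a vehicle-dosed control arm and expressed as their quotient.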

[1] = dose: 100.0 mg/kg/injection, schedule: Q01DX001 (ip), vehicle: saline
[2] = dose: 100.0 mg/kg/injection, schedule: Q01DX009 (ip), vehicle: saline with Tween-80
[3] = dose: 200.0 mg/kg/injection, schedule: Q01DX009 (ip), vehicle: saline with Tween-80
[4] = dose: 400.0 mg/kg/injection, schedule: Q01DX009 (ip), vehicle: saline with Tween-80
[5] = dose: 100.0 mg/kg/injection, schedule: Q01DX001 (ip), vehicle: other
[6] = dose: 200.0 mg/kg/injection, schedule: Q01DX001 (ip), vehicle: other
[7] = dose: 200.0 mg/kg/injection, schedule: Q01DX001 (ip), vehicle: saline
[8] = dose: 400.0 mg/kg/injection, schedule: Q01DX001 (ip), vehicle: saline
[9] = dose: 100.0 mg/kg/injection, schedule: Q01DX009 (ip), vehicle: Klucel (hydroxypropylcellulose) (HPC)
[10] = dose: 200.0 mg/kg/injection, schedule: Q01DX009 (ip), vehicle: Klucel (hydroxypropylcellulose) (HPC)
[11] = dose: 400.0 mg/kg/injection, schedule: Q01DX009 (ip), vehicle: Klucel (hydroxypropylcellulose) (HPC)
[12] = dose: 100.0 mg/kg/injection, schedule: Q01DX009 (ip), vehicle: saline
[13] = dose: 200.0 mg/kg/injection, schedule: Q01DX009 (ip), vehicle: saline

Measured: T/C

CN=C(NC)c1cccc(NC(=O)/C=C\c2ccc(/C=C/C(=O)Nc3cccc(C(=NC)NC)c3)cc2)c1
inactive: dose: 0.56 mg/kg/injection, schedule: Q01DX Z (ip), vehicle: carboxymethylcellulose (CMC) 103 % of control | dose: 1.12 mg/kg/injection, schedule: Q01DX Z (ip), vehicle: carboxymethylcellulose (CMC) 103 % of control | dose: 2.25 mg/kg/injection, schedule: Q01DX Z (ip), vehicle: carboxymethylcellulose (CMC) 120 % of control

CC(C)(C)C(=O)C(C)(C)C
inactive: dose: 100.0 mg/kg/injection, schedule: Q01DX001 (ip), vehicle: carboxymethylcellulose (CMC) 106 % of control | dose: 200.0 mg/kg/injection, schedule: Q01DX001 (ip), vehicle: carboxymethylcellulose (CMC) 101 % of control

C(=NCC(CCN1CCCC1)(CCN1CCCC1)c1cccc2ccccc12)C(CCN1CCCC1)(CCN1CCCC1)c1cccc2ccccc12
inactive: dose: 5.0 mg/kg/injection, schedule: Q01DX009 (ip), vehicle: saline with Tween-80 106 % of control | dose: 6.25 mg/kg/injection, schedule: Q04DX002 (ip), vehicle: saline 92 % of control | dose: 10.0 mg/kg/injection, schedule: Q01DX009 (ip), vehicle: saline with Tween-80 106 % of control | dose: 12.5 mg/kg/injection, schedule: Q04DX002 (ip), vehicle: saline 101 % of control

O=C(Nc1cccc2ccccc12)C(F)(F)F
inactive: [1] 93 % of control | [2] 98 % of control | dose: 100.0 mg/kg/injection, schedule: Q04DX003 (ip), vehicle: saline with Tween-80 90 % of control | [3] 104 % of control | dose: 200.0 mg/kg/injection, schedule: Q04DX003 (ip), vehicle: saline with Tween-80 95 % of control | [4] 98 % of control | dose: 400.0 mg/kg/injection, schedule: Q04DX003 (ip), vehicle: saline with Tween-80 93 % of control

O=C(Cc1ccccc1[N+](=O)[O-])NCCc1ccc2c(c1)OCO2
inactive: [5] 86 % of control | [6] 89 % of control | dose: 400.0 mg/kg/injection, schedule: Q01DX001 (ip), vehicle: other 89 % of control

Nc1ncnc2c1nnn2C1OC(CO)C(O)C1O (configuration not stated)
inactive: dose: 42.0 mg/kg/injection, schedule: Q01DX015 (ip), vehicle: saline 104 % of control | dose: 50.0 mg/kg/injection, schedule: Q01DX001 (ip), vehicle: saline 107 % of control | dose: 63.0 mg/kg/injection, schedule: Q01DX015 (ip), vehicle: saline 98 % of control | dose: 72.0 mg/kg/injection, schedule: Q01DX015 (ip), vehicle: saline 117 % of control | dose: 100.0 mg/kg/injection, schedule: Q01DX001 (ip), vehicle: Klucel (hydroxypropylcellulose) (HPC) 97 % of control | [1] 109 % of control and 106 % of control | dose: 100.0 mg/kg/injection, schedule: Q04DX003 (ip), vehicle: Klucel (hydroxypropylcellulose) (HPC) 95 % of control | dose: 180.0 mg/kg/injection, schedule: Q01DX001 (ip), vehicle: Klucel (hydroxypropylcellulose) (HPC) 120 % of control | dose: 180.0 mg/kg/injection, schedule: Q01DX001 (ip), vehicle: saline 113 % of control | dose: 200.0 mg/kg/injection, schedule: Q01DX001 (ip), vehicle: Klucel (hydroxypropylcellulose) (HPC) 92 % of control | [7] 116 % of control and 109 % of control | dose: 200.0 mg/kg/injection, schedule: Q04DX003 (ip), vehicle: Klucel (hydroxypropylcellulose) (HPC) 95 % of control | dose: 270.0 mg/kg/injection, schedule: Q01DX001 (ip), vehicle: Klucel (hydroxypropylcellulose) (HPC) 122 % of control | dose: 400.0 mg/kg/injection, schedule: Q01DX001 (ip), vehicle: Klucel (hydroxypropylcellulose) (HPC) 122 % of control and 97 % of control | [8] 106 % of control | dose: 400.0 mg/kg/injection, schedule: Q04DX003 (ip), vehicle: Klucel (hydroxypropylcellulose) (HPC) 92 % of control

COc1ccc(C=NC(C)(C)CO)cc1
inactive: dose: 100.0 mg/kg/injection, schedule: Q01DX001 (ip), vehicle: steriod suspending solution 114 % of control | dose: 200.0 mg/kg/injection, schedule: Q01DX001 (ip), vehicle: steriod suspending solution 90 % of control | dose: 400.0 mg/kg/injection, schedule: Q01DX001 (ip), vehicle: steriod suspending solution 97 % of control

CCOC(=O)CC1COC(=O)C1C(=O)OCC (configuration not stated)
inactive: dose: 12.5 mg/kg/injection, schedule: Q01DX009 (ip), vehicle: saline with Tween-80 105 % of control | dose: 25.0 mg/kg/injection, schedule: Q01DX009 (ip), vehicle: saline with Tween-80 105 % of control and 120 % of control | dose: 50.0 mg/kg/injection, schedule: Q01DX009 (ip), vehicle: saline with Tween-80 95 % of control | [2] 98 % of control and 122 % of control | [3] 118 % of control | [4] 106 % of control

O=C(OC1COC(SCc2ccccc2)C(OC(=O)c2ccccc2)C1OC(=O)c1ccccc1)c1ccccc1 (configuration not stated)
inactive: [1] 98 % of control | [7] 110 % of control | [8] 97 % of control

Brc1ccccc1Nn1c2ccccc2c2ccccc21
inactive: [9] 103 % of control | [10] 95 % of control | [11] 103 % of control

COc1ccc(OC)c2c(=O)c(C(=O)O)c[nH]c12
inactive: [1] 102 % of control | [7] 100 % of control | [8] 105 % of control

CC(C)(C)CC(C)(C)N=Cc1ccccc1
inactive: [1] 98 % of control | [7] 105 % of control | [8] 88 % of control

O=C(Nc1ccc(Cl)cc1)Nc1ncc(Cl)s1
inactive: [9] 94 % of control | [10] 96 % of control | [11] 89 % of control

O=C1C2C(c3cc4ccccc4n31)N2c1ccccc1 (configuration not stated)
inactive: dose: 0.75 mg/kg/injection, schedule: Q01DX001 (ip), vehicle: water 103 % of control | dose: 1.5 mg/kg/injection, schedule: Q01DX001 (ip), vehicle: water 103 % of control | dose: 3.0 mg/kg/injection, schedule: Q01DX001 (ip), vehicle: water 100 % of control | dose: 6.0 mg/kg/injection, schedule: Q01DX001 (ip), vehicle: water 106 % of control | dose: 12.0 mg/kg/injection, schedule: Q01DX001 (ip), vehicle: water 91 % of control | dose: 24.0 mg/kg/injection, schedule: Q01DX001 (ip), vehicle: water 106 % of control

O=C(CNc1ccccc1)NCc1ccccc1
inactive: [2] 92 % of control | [3] 95 % of control | [4] 97 % of control

CSC1=NCCN1
inactive: [12] 104 % of control | [13] 100 % of control | dose: 400.0 mg/kg/injection, schedule: Q01DX009 (ip), vehicle: saline 104 % of control

COc1c2c(c(OC)c3c(OC)c4ccccc4c(OC)c13)CC=CC2
inactive: dose: 50.0 mg/kg/injection, schedule: Q01DX005 (ip), vehicle: water 94 % of control | dose: 100.0 mg/kg/injection, schedule: Q01DX005 (ip), vehicle: water 87 % of control | dose: 200.0 mg/kg/injection, schedule: Q01DX005 (ip), vehicle: water 89 % of control | dose: 400.0 mg/kg/injection, schedule: Q01DX005 (ip), vehicle: water 87 % of control

c1ccc(CN2CCC(N3CCCC3)CC2)cc1
inactive: dose: 50.0 mg/kg/injection, schedule: Q01DX009 (ip), vehicle: saline 101 % of control | [12] 95 % of control | dose: 100.0 mg/kg/injection, schedule: Q04DX003 (ip), vehicle: saline 109 % of control | [13] 94 % of control | dose: 200.0 mg/kg/injection, schedule: Q04DX003 (ip), vehicle: saline 101 % of control

CCCCCCCCCCCCCCCCNCC(=O)Nc1ccc(S(=O)(=O)c2ccc(NC(=O)CNCCCCCCCCCCCCCCCC)cc2)cc1
inactive: dose: 4.0 mg/kg/injection, schedule: Q01DX015 (ip), vehicle: carboxymethylcellulose (CMC) 94 % of control | dose: 8.0 mg/kg/injection, schedule: Q01DX015 (ip), vehicle: carboxymethylcellulose (CMC) 94 % of control | dose: 16.0 mg/kg/injection, schedule: Q01DX015 (ip), vehicle: carboxymethylcellulose (CMC) 104 % of control | dose: 32.0 mg/kg/injection, schedule: Q01DX015 (ip), vehicle: carboxymethylcellulose (CMC) 93 % of control and 101 % of control | dose: 64.0 mg/kg/injection, schedule: Q01DX015 (ip), vehicle: carboxymethylcellulose (CMC) 117 % of control | [5] 89 % of control | [6] 100 % of control
